One assay addresses PI3Kδ (Homo sapiens, UniProt O00329). The settings on record: cited from earlier work.
A further assay deals with mTOR (Homo sapiens, UniProt P42345). To be noted: cited from earlier work.
In the next assay the target is PI3Kβ (Homo sapiens, UniProt P42338). To be noted: cited from earlier work.
The target of the next assay is PI3Kα (Homo sapiens, UniProt P42336). To be noted: cited from earlier work.
The target of a further assay is PI3Kγ (Homo sapiens, UniProt P48736). The settings on record: cited from earlier work.
The subject of another assay is class I PI3Ks. To be noted: cited from earlier work.
In another assay the target is mTORC1/2 (Homo sapiens, UniProt P42345). The settings on record: in words; cited from earlier work.
In assay [1] the test system is MCL cell lines (Mino, Rec-1, Maver-1, Z138, JeKo-1). Put plainly: CellTiter-Glo Luminescent Cell viability Assay, abemaciclib single agent. It is filed as cell-based. The settings on record: 72h; range over venetoclax sensitive (Mino, Rec-1, Maver-1, Z138) and primary resistant (JeKo-1) MCL cells. How it is done: (§1) IC50 values were calculated using GraphPad Prism 8 for each cell line. Student's t-test was performed to compare the difference between vehicle and treated groups. Two-way analysis of variance (ANOVA) was conducted to analyze the tumor growth in vivo experiments. P values less than 0.05 were considered statistically significant.
For orientation: ATP-based viability assays read luminescence as a measure of living cells.

The subject of another assay is Rec-ven-R cells. The description is as above. Format: cell-based. The settings on record: 72h, acquired venetoclax resistance. How it is done:
as §1

In another assay the test system is Mino-ven-R cells. The description is as above. It is filed as cell-based. The settings on record: 72h, acquired venetoclax resistance. How it is done:
as §1

Chain of PI3Kα (P42336 whole entry): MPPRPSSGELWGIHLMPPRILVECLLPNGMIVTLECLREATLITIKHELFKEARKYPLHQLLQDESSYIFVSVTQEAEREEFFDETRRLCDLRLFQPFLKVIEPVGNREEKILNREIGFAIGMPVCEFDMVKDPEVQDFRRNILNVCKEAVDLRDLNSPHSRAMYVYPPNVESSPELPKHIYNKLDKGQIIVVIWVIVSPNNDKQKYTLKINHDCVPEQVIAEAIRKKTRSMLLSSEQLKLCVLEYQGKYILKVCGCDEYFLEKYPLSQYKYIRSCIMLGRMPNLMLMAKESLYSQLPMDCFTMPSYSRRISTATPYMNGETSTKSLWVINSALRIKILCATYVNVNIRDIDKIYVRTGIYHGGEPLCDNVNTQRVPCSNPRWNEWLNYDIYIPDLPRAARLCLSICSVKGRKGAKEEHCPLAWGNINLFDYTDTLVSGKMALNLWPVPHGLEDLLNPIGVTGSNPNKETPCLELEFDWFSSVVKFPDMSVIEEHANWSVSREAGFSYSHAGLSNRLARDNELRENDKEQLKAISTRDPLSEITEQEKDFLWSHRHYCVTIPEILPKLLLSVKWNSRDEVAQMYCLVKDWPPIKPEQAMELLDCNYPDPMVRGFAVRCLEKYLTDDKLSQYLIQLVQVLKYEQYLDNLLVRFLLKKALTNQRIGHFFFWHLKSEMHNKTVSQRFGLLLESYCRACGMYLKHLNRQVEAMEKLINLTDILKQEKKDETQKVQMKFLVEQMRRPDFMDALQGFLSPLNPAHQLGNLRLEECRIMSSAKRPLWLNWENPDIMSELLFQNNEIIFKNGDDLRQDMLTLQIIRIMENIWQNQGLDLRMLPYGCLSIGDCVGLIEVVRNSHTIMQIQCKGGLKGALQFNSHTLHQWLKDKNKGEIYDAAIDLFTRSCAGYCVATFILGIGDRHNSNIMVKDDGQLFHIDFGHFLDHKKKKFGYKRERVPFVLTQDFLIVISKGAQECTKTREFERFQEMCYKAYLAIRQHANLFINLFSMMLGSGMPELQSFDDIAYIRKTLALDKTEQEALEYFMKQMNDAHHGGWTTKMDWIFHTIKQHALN
Chain of PI3Kα (P27986 whole entry partner): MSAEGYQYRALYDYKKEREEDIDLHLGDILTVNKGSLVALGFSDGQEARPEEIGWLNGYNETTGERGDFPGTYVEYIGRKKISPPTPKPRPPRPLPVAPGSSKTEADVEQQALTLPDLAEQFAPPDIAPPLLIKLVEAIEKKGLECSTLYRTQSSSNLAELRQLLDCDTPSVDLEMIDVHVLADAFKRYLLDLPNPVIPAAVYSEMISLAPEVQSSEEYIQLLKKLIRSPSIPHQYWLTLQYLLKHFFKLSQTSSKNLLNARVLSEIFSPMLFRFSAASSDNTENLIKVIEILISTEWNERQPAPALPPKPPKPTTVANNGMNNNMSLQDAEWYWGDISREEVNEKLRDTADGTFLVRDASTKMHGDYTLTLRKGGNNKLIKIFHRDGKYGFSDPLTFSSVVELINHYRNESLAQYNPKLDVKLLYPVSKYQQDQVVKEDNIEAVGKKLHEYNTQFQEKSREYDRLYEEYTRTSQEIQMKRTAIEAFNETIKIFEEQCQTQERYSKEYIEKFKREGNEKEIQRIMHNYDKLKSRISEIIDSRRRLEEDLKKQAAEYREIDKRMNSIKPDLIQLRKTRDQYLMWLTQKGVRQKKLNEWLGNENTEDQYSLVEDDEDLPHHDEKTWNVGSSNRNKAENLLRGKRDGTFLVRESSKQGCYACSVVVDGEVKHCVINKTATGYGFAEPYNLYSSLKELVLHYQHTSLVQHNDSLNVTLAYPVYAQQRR
Chain of PI3Kγ (P48736 whole entry): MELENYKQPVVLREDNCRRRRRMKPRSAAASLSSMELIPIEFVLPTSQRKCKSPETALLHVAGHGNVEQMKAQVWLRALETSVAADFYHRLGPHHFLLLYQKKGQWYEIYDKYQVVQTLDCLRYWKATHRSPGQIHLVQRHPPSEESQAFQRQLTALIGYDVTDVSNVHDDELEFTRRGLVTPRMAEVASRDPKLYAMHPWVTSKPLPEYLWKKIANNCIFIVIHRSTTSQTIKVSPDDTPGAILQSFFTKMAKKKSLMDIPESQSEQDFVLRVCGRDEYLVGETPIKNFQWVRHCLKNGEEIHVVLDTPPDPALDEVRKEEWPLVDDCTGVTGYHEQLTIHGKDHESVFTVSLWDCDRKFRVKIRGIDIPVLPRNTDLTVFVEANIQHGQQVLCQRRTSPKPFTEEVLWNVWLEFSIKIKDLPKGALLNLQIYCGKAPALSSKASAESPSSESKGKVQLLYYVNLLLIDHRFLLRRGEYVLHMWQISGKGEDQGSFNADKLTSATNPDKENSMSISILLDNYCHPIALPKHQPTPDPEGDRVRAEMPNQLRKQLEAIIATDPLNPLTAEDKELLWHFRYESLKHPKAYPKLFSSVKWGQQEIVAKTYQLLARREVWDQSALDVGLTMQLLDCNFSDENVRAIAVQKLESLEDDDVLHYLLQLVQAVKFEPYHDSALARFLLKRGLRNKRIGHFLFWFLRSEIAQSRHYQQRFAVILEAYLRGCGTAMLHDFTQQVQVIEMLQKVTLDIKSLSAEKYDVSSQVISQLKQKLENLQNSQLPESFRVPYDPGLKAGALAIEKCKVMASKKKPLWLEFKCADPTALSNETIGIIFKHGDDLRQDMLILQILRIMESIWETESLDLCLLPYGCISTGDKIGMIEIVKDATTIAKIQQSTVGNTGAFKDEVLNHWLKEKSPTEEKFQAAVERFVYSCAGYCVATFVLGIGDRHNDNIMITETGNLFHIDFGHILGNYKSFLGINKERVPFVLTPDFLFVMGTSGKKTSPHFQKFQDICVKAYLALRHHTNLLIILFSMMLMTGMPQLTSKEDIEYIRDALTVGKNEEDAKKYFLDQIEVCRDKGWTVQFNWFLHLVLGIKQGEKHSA
Chain of PI3Kδ (O00329 whole entry): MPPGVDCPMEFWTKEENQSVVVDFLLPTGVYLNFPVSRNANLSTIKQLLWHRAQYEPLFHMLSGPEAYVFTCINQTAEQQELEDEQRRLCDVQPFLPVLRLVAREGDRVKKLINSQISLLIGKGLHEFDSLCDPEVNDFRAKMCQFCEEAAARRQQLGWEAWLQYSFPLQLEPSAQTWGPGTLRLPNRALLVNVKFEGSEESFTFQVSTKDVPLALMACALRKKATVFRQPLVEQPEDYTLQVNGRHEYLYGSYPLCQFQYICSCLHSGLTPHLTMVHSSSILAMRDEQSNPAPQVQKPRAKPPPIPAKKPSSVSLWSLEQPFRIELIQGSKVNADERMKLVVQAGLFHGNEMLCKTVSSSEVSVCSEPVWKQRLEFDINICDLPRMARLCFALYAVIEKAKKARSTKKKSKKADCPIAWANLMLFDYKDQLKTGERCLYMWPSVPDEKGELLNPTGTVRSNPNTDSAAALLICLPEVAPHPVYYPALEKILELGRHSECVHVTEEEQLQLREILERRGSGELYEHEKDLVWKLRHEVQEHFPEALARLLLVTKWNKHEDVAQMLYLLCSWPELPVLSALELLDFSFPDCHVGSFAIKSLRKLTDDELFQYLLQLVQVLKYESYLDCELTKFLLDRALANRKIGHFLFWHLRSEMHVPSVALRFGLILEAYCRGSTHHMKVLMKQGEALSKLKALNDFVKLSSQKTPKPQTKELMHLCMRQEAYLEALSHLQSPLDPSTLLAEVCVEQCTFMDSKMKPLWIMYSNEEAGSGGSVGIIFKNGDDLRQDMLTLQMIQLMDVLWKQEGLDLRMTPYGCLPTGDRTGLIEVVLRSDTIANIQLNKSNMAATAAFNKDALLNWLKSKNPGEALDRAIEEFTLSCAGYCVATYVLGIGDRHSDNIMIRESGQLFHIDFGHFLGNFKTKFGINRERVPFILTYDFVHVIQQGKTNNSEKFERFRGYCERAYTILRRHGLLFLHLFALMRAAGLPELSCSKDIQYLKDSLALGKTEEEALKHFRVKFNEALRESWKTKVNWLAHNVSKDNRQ
Chain of PI3Kδ (P27986 whole entry partner): as the sequence (P27986 whole entry partner) above
Chain of PI3Kβ (P42338 whole entry): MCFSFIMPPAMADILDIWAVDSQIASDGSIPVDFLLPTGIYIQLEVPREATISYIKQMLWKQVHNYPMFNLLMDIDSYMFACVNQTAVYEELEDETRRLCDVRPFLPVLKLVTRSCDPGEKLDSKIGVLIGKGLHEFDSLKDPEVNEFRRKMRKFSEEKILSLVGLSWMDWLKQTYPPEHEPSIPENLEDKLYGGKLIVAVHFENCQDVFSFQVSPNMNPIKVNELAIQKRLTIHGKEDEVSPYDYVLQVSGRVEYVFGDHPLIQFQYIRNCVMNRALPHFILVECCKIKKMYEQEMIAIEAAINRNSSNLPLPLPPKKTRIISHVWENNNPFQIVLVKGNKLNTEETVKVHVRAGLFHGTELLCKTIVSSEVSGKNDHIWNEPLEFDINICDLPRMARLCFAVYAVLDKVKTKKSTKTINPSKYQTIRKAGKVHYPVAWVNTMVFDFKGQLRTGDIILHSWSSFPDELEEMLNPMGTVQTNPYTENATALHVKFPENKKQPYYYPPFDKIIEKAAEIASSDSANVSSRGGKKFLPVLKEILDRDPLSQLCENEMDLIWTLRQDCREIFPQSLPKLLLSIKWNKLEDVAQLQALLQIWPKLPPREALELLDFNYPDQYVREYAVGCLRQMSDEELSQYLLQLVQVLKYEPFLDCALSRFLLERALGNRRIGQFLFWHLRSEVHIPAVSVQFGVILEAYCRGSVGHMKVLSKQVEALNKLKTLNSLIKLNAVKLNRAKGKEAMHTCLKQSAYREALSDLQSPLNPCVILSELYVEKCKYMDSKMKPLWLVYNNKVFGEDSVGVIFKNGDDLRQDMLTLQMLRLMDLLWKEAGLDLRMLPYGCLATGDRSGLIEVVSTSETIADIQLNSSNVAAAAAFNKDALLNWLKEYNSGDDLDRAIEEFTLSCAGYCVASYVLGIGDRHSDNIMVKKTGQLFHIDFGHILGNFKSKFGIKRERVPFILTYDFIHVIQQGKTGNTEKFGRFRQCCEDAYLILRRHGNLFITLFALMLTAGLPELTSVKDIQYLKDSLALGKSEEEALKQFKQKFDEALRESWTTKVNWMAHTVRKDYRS
Chain of PI3Kβ (P27986 whole entry partner): as the sequence (P27986 whole entry partner) above

Consider `C[C@@H](Nc1cc(F)cc(F)c1)c1cc(C(=O)N(C)C)cc2c(=O)cc(N3CCOCC3)oc12` [AZD8186, 8-[(1R)-1-(3,5-difluoroanilino)ethyl]-N,N-dimethyl-2-morpholin-4-yl-4-oxochromene-6-carboxamide], for which, on PI3Kδ, the “IC50 against PI3Kδ (order of magnitude in words)” value (“IC50 against PI3Kδ” below) is reported as “nanomolar”.
Turning to `C[C@H](Nc1ncnc2nc[nH]c12)c1nc2ccc(F)cc2c(=O)n1-c1ccccc1` [Acalisib, 6-fluoro-3-phenyl-2-[(1S)-1-(7H-purin-6-ylamino)ethyl]quinazolin-4-one], the “IC50 against PI3Kδ” value on PI3Kδ is listed as “nanomolar”.
Consider `Cc1c(CN2CCN(C(=O)[C@H](C)O)CC2)sc2c(N3CCOCC3)nc(-c3cnc(N)nc3)nc12` [Apitolisib, (2S)-1-[4-[[2-(2-aminopyrimidin-5-yl)-7-methyl-4-morpholin-4-ylthieno[3,2-d]pyrimidin-6-yl]methyl]piperazin-1-yl]-2-hydroxypropan-1-one], for which the “IC50 against mTOR (order of magnitude in words)” value (“IC50 against mTOR” for short) at mTOR is listed as “nanomolar”.
As to `COc1ccc(-c2ccc3ncc4c(c3c2)n(-c2ccc(N3CCNCC3)c(C(F)(F)F)c2)c(=O)n4C)cn1` [BGT-226, 8-(6-methoxypyridin-3-yl)-3-methyl-1-[4-piperazin-1-yl-3-(trifluoromethyl)phenyl]imidazo[4,5-c]quinolin-2-one], the “IC50 against PI3Kβ (order of magnitude in words)” value (“IC50 against PI3Kβ” for short) at PI3Kβ is “nanomolar”. Besides, at PI3Kα, the “IC50 against PI3Kα (order of magnitude in words)” value (“IC50 against PI3Kα” for short) is “nanomolar”. Also, the “IC50 against mTOR” value at mTOR is “nanomolar”. Further, the “IC50 against PI3Kγ (order of magnitude in words)” value (from here on “IC50 against PI3Kγ”) on PI3Kγ is “nanomolar”. The “IC50 against PI3Kδ” value on PI3Kδ is reported as “nanomolar”.
Take `CS(=O)(=O)N1CCc2c(-c3cnc(N)nc3)nc(N3CCOCC3)nc21` [CH5132799, 5-(7-(methylsulfonyl)-2-morpholino-6,7-dihydro-5H-pyrrolo[2,3-d]pyrimidin-4-yl)pyrimidin-2-amine]: the “IC50 against class I PI3Ks (order of magnitude in words)” value with class I PI3Ks is listed as “nanomolar”.
`COc1cccc2cc(-c3nc([C@H]4CC[C@H](C(=O)O)CC4)n4ncnc(N)c34)[nH]c12` [OSI-027, 4-[4-amino-5-(7-methoxy-1H-indol-2-yl)imidazo[5,1-f][1,2,4]triazin-7-yl]cyclohexane-1-carboxylic acid]: the “IC50 against mTOR” value at mTOR is listed as “nanomolar”.
In the case of `COc1ncc(-c2ccc3nccc(-c4ccnnc4)c3c2)cc1NS(=O)(=O)c1ccc(F)cc1F` [Omipalisib, 2,4-difluoro-N-[2-methoxy-5-(4-pyridazin-4-ylquinolin-6-yl)pyridin-3-yl]benzenesulfonamide], the “IC50 against PI3Kγ” value on PI3Kγ was “nanomolar”.
Turning to `O=C(Nc1ccncc1)Nc1ccc(-c2nc(N3CCOCC3)nc(N3C4CCC3COC4)n2)cc1` [PKI-179, 1-[4-[4-morpholin-4-yl-6-(3-oxa-8-azabicyclo[3.2.1]octan-8-yl)-1,3,5-triazin-2-yl]phenyl]-3-pyridin-4-ylurea], at PI3Kβ, the “IC50 against PI3Kβ” value is reported as “nanomolar”. In addition, the “IC50 against PI3Kα” value on PI3Kα is reported as “nanomolar”. Besides, on mTOR, the “IC50 against mTOR” value is “nanomolar”. The “IC50 against PI3Kγ” value on PI3Kγ is given as “nanomolar”. The “IC50 against PI3Kδ” value on PI3Kδ was “nanomolar”.
For `CCOc1c([C@H](C)n2nc(C)c3c(N)ncnc32)cc(Cl)c(F)c1[C@@H]1CNC(=O)C1` [Parsaclisib, (4R)-4-[3-[(1S)-1-(4-amino-3-methylpyrazolo[3,4-d]pyrimidin-1-yl)ethyl]-5-chloro-2-ethoxy-6-fluorophenyl]pyrrolidin-2-one], the “IC50 against PI3Kδ” value on PI3Kδ is recorded as “nanomolar”.
`COc1ccc(Cl)c(Nc2nc3ccccc3nc2NS(=O)(=O)c2cccc(NC(=O)C(C)(C)N)c2)c1` [Pilaralisib, 2-amino-N-[3-[[3-(2-chloro-5-methoxyanilino)quinoxalin-2-yl]sulfamoyl]phenyl]-2-methylpropanamide]: on PI3Kβ, the “IC50 against PI3Kβ” value is listed as “nanomolar”. In addition, the “IC50 against PI3Kα” value on PI3Kα is “nanomolar”. For the same compound, on PI3Kγ, the “IC50 against PI3Kγ” value was “nanomolar”. In addition, the “IC50 against PI3Kδ” value at PI3Kδ is “nanomolar”.
Consider `CO[C@@H](C)Cn1c(=O)n(C)c2cnc3ccc(-c4cncc(C(C)(C)O)c4)cc3c21` [Samotolisib, 8-[5-(2-hydroxypropan-2-yl)pyridin-3-yl]-1-[(2S)-2-methoxypropyl]-3-methylimidazo[4,5-c]quinolin-2-one], for which, at mTORC1/2, the “concentrations at which mTORC1/2 is inhibited” value is recorded as “low nanomolar concentrations”.
With `Nc1nc2cc(-c3ccc4ncc(C(=O)N5CCOCC5)n4c3)ccc2o1` [Serabelisib, [6-(2-amino-1,3-benzoxazol-5-yl)imidazo[1,2-a]pyridin-3-yl]-morpholin-4-ylmethanone], the “IC50 against PI3Kα” value at PI3Kα is recorded as “nanomolar”.
For `C=CCN(/C=C1/C(=O)O[C@H](COC)[C@@]2(C)C1=C(O)C(=O)C1=C2[C@H](OC(C)=O)C[C@]2(C)C(=O)CC[C@@H]12)CC=C` [Sonolisib, [(3αR,6E,9S,9αR,10R,11αS)-6-[bis(prop-2-enyl)aminomethylidene]-5-hydroxy-9-(methoxymethyl)-9α,11α-dimethyl-1,4,7-trioxo-2,3,3a,9,10,11-hexahydroindeno[4,5-h]isochromen-10-yl]acetate], the “IC50 against PI3Kα” value at PI3Kα is recorded as “nanomolar”. In addition, on PI3Kγ, the “IC50 against PI3Kγ” value is on record as “nanomolar”. Further, the “IC50 against PI3Kδ” value on PI3Kδ is given as “nanomolar”.
Regarding `Cc1nc(-c2cn3c(n2)-c2ccc(-c4cnn(C(C)(C)C(N)=O)c4)cc2OCC3)n(C(C)C)n1` [Taselisib, 2-methyl-2-[4-[2-(5-methyl-2-propan-2-yl-1,2,4-triazol-3-yl)-5,6-dihydroimidazo[1,2-d][1,4]benzoxazepin-9-yl]pyrazol-1-yl]propanamide], the “IC50 against PI3Kβ” value on PI3Kβ was “nanomolar”. Moreover, the “IC50 against PI3Kγ” value at PI3Kγ is “nanomolar”.
In the case of `CO[C@H]1C[C@@H]2CC[C@@H](C)[C@@](O)(O2)C(=O)C(=O)N2CCCC[C@H]2C(=O)O[C@H]([C@H](C)C[C@@H]2CC[C@@H](OC(=O)C(C)(CO)CO)[C@H](OC)C2)CC(=O)[C@H](C)/C=C(\C)[C@@H](O)[C@@H](OC)C(=O)[C@H](C)C[C@H](C)/C=C/C=C/C=C/1C` [Temsirolimus, [(1R,2R,4S)-4-[(2R)-2-[(1R,9S, 12S, 15R, 16E,18R, 19R,21R,23S,24E,26E,28E,30S,32S,35R)-1,18-dihydroxy-19,30-dimethoxy-15,17,21,23,29,35-hexamethyl-2,3,10, 14,20-pentaoxo-11,36-dioxa-4-azatricyclo[30.3.1.04,9]hexatriaconta-16,24,26,28-tetraen-12-yl]propyl]-2-methoxycyclohexyl]3-hydroxy-2-(hydroxymethyl)-2-methylpropanoate], the “IC50 against mTOR” value on mTOR is “micromolar”.
As for `CC[C@H](Nc1ncnc2[nH]cnc12)c1oc2ccccc2c(=O)c1-c1cccc(F)c1` [Tenalisib, 3-(3-fluorophenyl)-2-[(1S)-1-(7H-purin-6-ylamino)propyl]chromen-4-one], the “IC50 against PI3Kγ” value on PI3Kγ is on record as “nanomolar”. Moreover, the “IC50 against PI3Kδ” value at PI3Kδ was “nanomolar”.
For the compound `CCn1c(=O)c(-c2ccn[nH]2)cc2c(C)nc(N)nc21` [Voxtalisib, 2-amino-8-ethyl-4-methyl-6-(1H-pyrazol-5-yl)pyrido[2,3-d]pyrimidin-7-one], on PI3Kβ, the “IC50 against PI3Kβ” value is reported as “nanomolar”. In addition, the “IC50 against PI3Kα” value at PI3Kα is reported as “nanomolar”. Also, on mTOR, the “IC50 against mTOR” value is given as “nanomolar”. Also, at PI3Kγ, the “IC50 against PI3Kγ” value was “nanomolar”. At PI3Kδ, the “IC50 against PI3Kδ” value is listed as “nanomolar”.
Turning to `CN1CCC(c2ccccc2CC(C)(C)Nc2nc(N3CCOCC3)nc(-n3c(C(F)F)nc4ccccc43)n2)CC1` [Zandelisib, 4-[2-(difluoromethyl)benzimidazol-1-yl]-N-[2-methyl-1-[2-(1-methylpiperidin-4-yl)phenyl]propan-2-yl]-6-morpholin-4-yl-1,3,5-triazin-2-amine], the “IC50 against PI3Kδ” value at PI3Kδ is “nanomolar”.
Take `CCN1CCN(Cc2ccc(Nc3ncc(F)c(-c4cc(F)c5nc(C)n(C(C)C)c5c4)n3)nc2)CC1` [abemaciclib]: the IC50 in assay [1] is 0.07 to 0.952 µM; in the assay with Rec-ven-R cells, 4.4 µM; in the assay on Mino-ven-R cells, 6 µM.

A word on the IC50: it is the point on the concentration scale where inhibition reaches its midpoint.
